Compound in one assay: CNC(=O)c1cc(Oc2ccc(NC(=O)Nc3ccc(Cl)c(C(F)(F)F)c3)cc2)ccn1 [SORAFENIB]
The assay can be described thus: surviving fraction relative to DMSO-only wells; higher = less growth inhibition. The following applies: exposure time: 5 days. In outline:
(§1)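 Inhibitors were tested at 0.5, 1, 5, 10, 50, 100, 500 and 1000 nM, applied continuously for five days beginning 24 hours after log-phase tumour cells were seeded at 250–500 per well in 384-well plates. CellTiter-Glo luminescence served as the viability measure, expressed as surviving fraction against the median of DMSO-only wells. Each line, screened three times, was kept only with replicate Pearson r >0.7 and median Z' >0.3.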

Compound in assay [1]: C[C@@H](Oc1cc(-c2cnn(C3CCNCC3)c2)cnc1N)c1c(Cl)ccc(F)c1Cl
The assay is described as above. The following applies: exposure time: 5 days. In outline: as §1

± gives the standard deviation of the averaged measurements.

As to HS578T BREAST, the surviving fraction in the assay with SORAFENIB (0.5 nM) was 0.671 ± 0.16; with SORAFENIB (1 nM), 0.862 ± 0.077; in the assay with SORAFENIB (5 nM), 0.766 ± 0.015; with SORAFENIB (10 nM), 0.776 ± 0.018; with SORAFENIB (50 nM), 0.831 ± 0.15; with SORAFENIB (100 nM), 0.794 ± 0.034. Also, the surviving fraction in assay [1] (1 nM) is 0.827 ± 0.12; in assay [1] (5 nM), 0.845 ± 0.063; in assay [1] (10 nM), 0.959 ± 0.16; in assay [1] (50 nM) it was 0.936 ± 0.1; in assay [1] (100 nM), 0.85 ± 0.1; in assay [1] (500 nM), 0.552 ± 0.13. For the same test system, in assay [1] (1000 nM), the surviving fraction turned out to be 0.563 ± 0.11.
Take HS57T BREAST: the surviving fraction in the assay with SORAFENIB (0.5 nM) came out at 0.987 ± 0.058; with SORAFENIB (1 nM), 1.045 ± 0.0089; in the assay with SORAFENIB (5 nM), 1.05 ± 0.031; with SORAFENIB (10 nM) it was 1.082 ± 0.0081; with SORAFENIB (50 nM) it was 1.09 ± 0.057; with SORAFENIB (100 nM), 1.15 ± 0.084. For the same test system, the surviving fraction in the assay with SORAFENIB (500 nM) is 0.965 ± 0.059; in the assay with SORAFENIB (1000 nM) it was 0.951 ± 0.021; in assay [1] (0.5 nM), 0.904 ± 0.058; in assay [1] (10 nM), 0.98 ± 0.027; in assay [1] (50 nM) it was 0.971 ± 0.04; in assay [1] (100 nM) it was 0.926 ± 0.06. For the same test system, the surviving fraction in assay [1] (500 nM) was 0.568 ± 0.016; in assay [1] (1000 nM), 0.492 ± 0.021.
Turning to HMT3552 BREAST, the surviving fraction is 1.1 with SORAFENIB (0.5 nM); 1.03 with SORAFENIB (1 nM); 1.33 with SORAFENIB (50 nM); 1.29 in the assay with SORAFENIB (100 nM); 1.36 with SORAFENIB (500 nM); 1.29 with SORAFENIB (1000 nM). The values for the surviving fraction in assay [1] (50 nM), in assay [1] (500 nM) and in assay [1] (1000 nM) were 1.17, 0.393 and 0.211, respectively.
As to HCC70 BREAST, the surviving fraction in the assay with SORAFENIB (0.5 nM) was 1.01 ± 0.069; with SORAFENIB (1 nM) it was 0.976 ± 0.082; in the assay with SORAFENIB (5 nM) it was 1.1 ± 0.057; with SORAFENIB (10 nM), 1.01 ± 0.032; with SORAFENIB (50 nM), 1.22 ± 0.019; with SORAFENIB (100 nM), 1.34 ± 0.081. Also, the surviving fraction with SORAFENIB (500 nM) turned out to be 1.33 ± 0.032; in the assay with SORAFENIB (1000 nM), 1.25 ± 0.16; in assay [1] (1 nM), 0.95 ± 0.095; in assay [1] (100 nM) it was 1.14 ± 0.12; in assay [1] (500 nM), 0.964 ± 0.04; in assay [1] (1000 nM) it was 0.736 ± 0.034.
HCC38 BREAST: the surviving fraction is 1.19 ± 0.19 with SORAFENIB (0.5 nM); 1.27 ± 0.14 in the assay with SORAFENIB (5 nM); 1.18 ± 0.16 with SORAFENIB (10 nM); 1.26 ± 0.29 with SORAFENIB (50 nM); 1.32 ± 0.21 with SORAFENIB (100 nM); 1.29 ± 0.26 in the assay with SORAFENIB (500 nM). Moreover, the surviving fraction stood at 1.22 ± 0.26 with SORAFENIB (1000 nM); 0.862 ± 0.14 in assay [1] (0.5 nM); 0.928 ± 0.18 in assay [1] (5 nM); 0.928 ± 0.16 in assay [1] (10 nM); 1.09 ± 0.22 in assay [1] (50 nM); 1.13 ± 0.23 in assay [1] (100 nM). Also, the surviving fraction in assay [1] (1000 nM) was 0.66 ± 0.14.
For the test system G292 BONE, the surviving fraction stood at 0.973 ± 0.051 with SORAFENIB (0.5 nM); 0.967 ± 0.034 in the assay with SORAFENIB (1 nM); 1.01 ± 0.02 in the assay with SORAFENIB (5 nM); 1.02 ± 0.04 with SORAFENIB (10 nM); 1.01 ± 0.058 with SORAFENIB (50 nM); 0.96 ± 0.016 with SORAFENIB (100 nM). Besides, the surviving fraction with SORAFENIB (500 nM) is 0.918 ± 0.025; in assay [1] (0.5 nM), 0.961 ± 0.025; in assay [1] (1 nM) it was 0.971 ± 0.032; in assay [1] (5 nM), 0.931 ± 0.088; in assay [1] (50 nM), 0.948 ± 0.038; in assay [1] (100 nM) it was 0.871 ± 0.011. Further, the surviving fraction turned out to be 0.564 ± 0.031 in assay [1] (500 nM) and 0.38 ± 0.01 in assay [1] (1000 nM).
Consider HMLE3 BREAST, for which the surviving fraction in the assay with SORAFENIB (0.5 nM) worked out at 0.899 ± 0.033; in the assay with SORAFENIB (1 nM), 1 ± 0.0095; in the assay with SORAFENIB (5 nM), 1.08 ± 0.084; in the assay with SORAFENIB (10 nM), 1.1 ± 0.045; in the assay with SORAFENIB (50 nM), 1.3 ± 0.044; with SORAFENIB (100 nM), 1.41 ± 0.045. The surviving fraction in the assay with SORAFENIB (500 nM) amounted to 1.41 ± 0.021; in the assay with SORAFENIB (1000 nM) it was 1.41 ± 0.079; in assay [1] (0.5 nM) it was 0.873 ± 0.031; in assay [1] (1 nM), 0.829 ± 0.028; in assay [1] (50 nM) it was 0.941 ± 0.063; in assay [1] (100 nM), 0.843 ± 0.019. In addition, the surviving fraction in assay [1] (500 nM) came to 0.599 ± 0.051; in assay [1] (1000 nM), 0.38 ± 0.011.
